Assay results: US9206124B2, “Treatment of drug-resistant cancer with 2-aryl-2-(3-indolyl) acetohydroxamates” (New Mexico Technical Research Foundation, priority 2013, dated 2015)
Read-outs that look alike come from different tables or passages of the source.

Experiments:
[1] = tested on: HeLa cervical and MCF-7 breast adenocarcinomas; test: In vitro growth inhibition (MTT); assay type: cell-based, human; settings: HeLa and MCF-7
Source text: (§1) This finding led to an exploration of the SAR analyses by synthesizing the first generation compounds 3 containing diverse substituents at different positions in the 2-aryl-2-(3-indolyl)acetohydroxamate skeleton and testing this series for in vitro growth inhibition using the MTT colorimetric assay against two cell lines, human HeLa cervical and MCF-7 breast adenocarcinomas (Table 1). It emerged from these experiments that the substitution on the benzene ring of the indole moiety (R^2≠H) was not tolerated (e.g., 3abfa and 3acfa), whereas the nitrogen could be derivatized (R^1≠H) with only a small activity drop (e.g., 3bafa vs 3aafa).
(§2) Antiproliferative properties of the synthesized compounds were evaluated by the MTT assay. All compounds were dissolved in DMSO at a concentration of either 100 mM or 50 mM prior to cell treatment. The cells were trypsinized and seeded at 4×10^3 cells per well into 96-well plates. The cells were grown for 24 h, treated with compounds at concentrations ranging from 0.001 to 100 μM and incubated for 48 h in 200 μL media. 20 μL of MTT reagent in serum free medium (5 mg/mL) was added to each well and incubated further for 2 h. Media was removed and the resulting formazan crystals were re-solubilized in 200 μL of DMSO. A490 was measured using a Molecular Devices Thermomax plate reader. The experiments were performed in quadruplicate and repeated at least twice for each compound per cell line. Cells treated with 0.1% DMSO were used as a negative control; 1 μM phenyl arsine oxide (PAO) was used as a positive control.

[2] = tested on: HeLa cervical adenocarcinoma cells; test: MTT antiproliferative assay, HeLa; assay type: cell-based; settings: Homo sapiens, ± SD, read-out: cell viability GI50, HeLa
Source text: as §1
(§3) Human cancer cell lines were obtained from the American Type Culture Collection (ATCC, Manassas, Va., USA), the European Collection of Cell Culture (ECACC, Salisbury, UK) and the Deutsche Sammlung von Mikroorganismen and Zellkulturen (DSMZ, Braunschweig, Germany). Human cervical adenocarcinoma HeLa cells were cultured in DMEM supplemented with 10% fetal bovine serum (FBS). Human mammary carcinoma MCF-7 cells were cultured in RPMI supplemented with 10% FBS. The U87 cells (ATCC HTB-14) were cultured in DMEM culture medium, while the A549 cells (DSMZ ACC107) were cultured in RPMI culture medium supplemented with 10% heat-inactivated FBS. The glioblastoma multiforme Hs683 (ATCC HTB-138) and the T98G (ATCC CRL-1690) cell lines were cultivated in DMEM supplemented with 10% FBS. The Human uterine sarcoma MES-SA and MES-SA/Dx5 cells were cultured in RPMI-1640 medium supplemented with 10% FBS with MES SA/Dx5 maintained in the presence of 500 nM Doxorubicin (Sigma). SKMEL-28 cells (ATCC HTB72) and U373 glioblastoma cells (ECACC 08061901) were cultured in RPMI culture medium supplemented with 10% heat-inactivated FBS. Cell culture media were supplemented with 4 mM glutamine (Lonza code BE17-605E), 100 μg/mL gentamicin (Lonza code 17-5182), and penicillin-streptomycin (200 units/ml and 200 μg/ml) (Lonza code 17-602E). Neurosphere culture GBM 031810 was established using known methods and maintained in Neurobasal medium (Invitrogen Carlsbad, Calif.) with B27 supplement (20 ul/ml; Invitrogen), Glutamax (10 ul/ml; Invitrogen), fibroblast growth factor-2 (20 ng/ml; Peprotech, Rocky Hill, N.J., USA), epidermal growth factor (20 ng/ml; Peprotech), heparin (32 IE/ml; Sigma Aldrich, St. Louis, Mo.), and penicillin-streptomycin (1×, Invitrogen). Growth factors and heparin were renewed twice weekly. All cell lines were cultured in T25 flasks, maintained and grown at 37° C., 95% humidity, 5% CO2.
as §2

[3] = tested on: MCF-7 breast adenocarcinoma cells; test: MTT antiproliferative assay, MCF-7; assay type: cell-based; settings: Homo sapiens, ± SD, read-out: cell viability GI50, MCF7
Source text: as §1, §3, §2

[4] = tested on: MES-SA uterine sarcoma cells; test: MTT antiproliferative assay, MES-SA; assay type: cell-based; settings: Homo sapiens, 48 h treatment, ± SD, read-out: GI50 in vitro, MES-SA
Method: Compared with the intrinsic drug resistance, as described above for such cancers as glioblastoma and melanoma, a large variety of tumors can also develop resistance to anticancer drugs resulting in MDR as explained previously. To assess whether the hydroxamates can overcome this resistance mechanism, selected hydroxamates were tested against MDR cells (Table 4). The MDR uterine sarcoma cell line MES-SA/Dx5 was utilized for this experiment. This cell line was established from the parent uterine sarcoma MES-SA, grown in the presence of increasing concentrations of doxorubicin and known to be resistant to a number of P-gp substrates. […] In contrast, there was only a small variation in the sensitivities of the two cell lines towards the hydroxamates indicating their potential to overcome clinical multi-drug resistance.
as §3, §2

[5] = tested on: A549 non-small-cell-lung cancer cells; test: MTT antiproliferative assay, A549; assay type: cell-based, human; settings: FIG. 3; concentrations up to 100 μM
Method: (§4) As part of the ongoing efforts aimed at identification of compounds active against cancer cells displaying resistance to proapoptotic agents, the selected 2-aryl-2-(3-indolyl)-acetohydroxamates were evaluated for in vitro growth inhibition against a panel of additional cancer cell lines including those resistant to various proapoptotic stimuli, such as human T98G and U87 glioblastoma and human A549 non-small-cell-lung cancer (NSCLC), as well as an apoptosis-sensitive tumor model, such as human Hs683 anaplastic oligodendroglioma, used as a reference. The data reveal that for the most part these compounds retain the single-digit antiproliferatve GI50 values in this challenging cancer cell panel.
as §3, §2

[6] = tested on: U87 glioblastoma cells; test: MTT antiproliferative assay, U87; assay type: cell-based, human; settings: FIG. 3; concentrations up to 100 μM
Method: as §4, §3, §2

[7] = tested on: MES-SA/Dx5 MDR uterine sarcoma cells; test: MTT antiproliferative assay, MDR MES-SA/Dx5; assay type: cell-based, human
Method: Compared with the intrinsic drug resistance, as described above for such cancers as glioblastoma and melanoma, a large variety of tumors can also develop resistance to anticancer drugs resulting in MDR as explained previously. To assess whether the hydroxamates can overcome this resistance mechanism, selected hydroxamates were tested against MDR cells (Table 4). The MDR uterine sarcoma cell line MES-SA/Dx5 was utilized for this experiment. This cell line was established from the parent uterine sarcoma MES-SA, grown in the presence of increasing concentrations of doxorubicin and known to be resistant to a number of P-gp substrates.
as §3, §2
Selection of the MES-SA/Dx5 cell line was done according to W. G. Harker and B. I. Sikic, Cancer Res. 1985, p. 45, 4091. The cells were split and allowed to adhere overnight. […] The cells were maintained at this DOX concentration until their growth rate reached that of the untreated cells.

GI50 ([2]; Table 1, 48 h treatment) [µM]	GI50 ([3]; MCF7, Table 1, 48 h treatment) [µM]	GI50 ([2]; Table 2, 48 h treatment) [µM]	GI50 ([3]; MCF7, Table 2, 48 h treatment) [µM]	SMILES	further results
23 ± 2.6	31 ± 0.6	–	–	O=C(NO)C(c1ccccc1)c1c(-c2ccccc2)[nH]c2ccccc12 (centres unmarked) [Compound 3aaaa]	antiproliferative potency (GI50) [1]: double-digit micromolar
> 50	> 50	–	–	O=C(NO)C(c1ccc([N+](=O)[O-])cc1)c1c(-c2ccccc2)[nH]c2ccccc12 (centres unmarked) [Compound 3aaab]	–
> 50	> 50	–	–	O=C(NO)C(c1ccccc1)c1c(-c2ccccc2[N+](=O)[O-])[nH]c2ccccc12 (centres unmarked) [Compound 3aaba]	–
> 50	> 50	–	–	COc1ccc(-c2[nH]c3ccccc3c2C(C(=O)NO)c2ccccc2)cc1 (centres unmarked) [Compound 3aaca]	–
> 50	> 50	–	–	Cc1[nH]c2ccccc2c1C(C(=O)NO)c1ccccc1 (centres unmarked) [Compound 3aada]	–
25.7 ± 1.6	32 ± 0.9	–	–	O=C(NO)C(c1ccccc1)c1c(-c2cccc3ccccc23)[nH]c2ccccc12 (centres unmarked) [Compound 3aaea]	–
–	–	32.9 ± 1.1	20.4 ± 0.1	O=C(NO)C(c1cccc(F)c1)c1c(-c2ccc3ccccc3c2)[nH]c2ccccc12 (centres unmarked) [Compound 3aafc]	–
–	–	13 ± 0.4	2.7	O=C(NO)C(c1ccccc1Br)c1c(-c2ccc3ccccc3c2)[nH]c2ccccc12 (centres unmarked) [Compound 3aafd]	–
–	–	26.9 ± 0.3	2.4 ± 0.1	COc1ccc(C(C(=O)NO)c2c(-c3ccc4ccccc4c3)[nH]c3ccccc23)cc1OC (centres unmarked) [Compound 3aaff]	–
–	–	18.2 ± 0.9	6.3 ± 1.1	O=C(NO)C(c1ccc(F)cc1)c1c(-c2ccc3ccccc3c2)[nH]c2ccccc12 (centres unmarked) [Compound 3aafg]	–
–	–	31 ± 0.2	4.9 ± 0.1	O=C(NO)C(c1ccccc1Cl)c1c(-c2ccc3ccccc3c2)[nH]c2ccccc12 (centres unmarked) [Compound 3aafh]	–
–	–	31.7 ± 1.7	12.2 ± 1	O=C(NO)C(c1ccc(Cl)c(Cl)c1)c1c(-c2ccc3ccccc3c2)[nH]c2ccccc12 (centres unmarked) [Compound 3aafi]	–
–	–	27.4 ± 0.2	10.2 ± 0.1	O=C(NO)C(c1ccc(OC(F)(F)F)cc1)c1c(-c2ccc3ccccc3c2)[nH]c2ccccc12 (centres unmarked) [Compound 3aafj]	–
–	–	17.3 ± 0.2	8.5 ± 0.3	CCOc1ccc(C(C(=O)NO)c2c(-c3ccc4ccccc4c3)[nH]c3ccccc23)cc1 (centres unmarked) [Compound 3aafl]	–
–	–	6.3 ± 1.3	4.9 ± 0.2	Cc1ccc(C(C(=O)NO)c2c(-c3ccc4ccccc4c3)[nH]c3ccccc23)cc1 (centres unmarked) [Compound 3aafm]	antiproliferative potency (GI50) [1]: single-digit micromolar
–	–	6.9 ± 0.4	7.4 ± 0.6	Cc1cccc(C(C(=O)NO)c2c(-c3ccc4ccccc4c3)[nH]c3ccccc23)c1 (centres unmarked) [Compound 3aafn]	antiproliferative potency (GI50) [1]: single-digit micromolar
–	–	4.1 ± 0.2	7.9 ± 0.7	CCN(CC)c1ccc(C(C(=O)NO)c2c(-c3ccc4ccccc4c3)[nH]c3ccccc23)cc1 (centres unmarked) [Compound 3aafo]	antiproliferative potency (GI50) [1]: single-digit micromolar
> 50	> 50	–	–	Cc1ccc2[nH]c(-c3ccc4ccccc4c3)c(C(C(=O)NO)c3ccccc3)c2c1 (centres unmarked) [Compound 3abfa]	–
> 50	> 50	–	–	COc1ccc2[nH]c(-c3ccc4ccccc4c3)c(C(C(=O)NO)c3ccccc3)c2c1 (centres unmarked) [Compound 3acfa]	–
19.7 ± 1.7	10 ± 0.3	–	–	Cn1c(-c2ccc3ccccc3c2)c(C(C(=O)NO)c2ccccc2)c2ccccc21 (centres unmarked) [Compound 3bafa]	–
36.8 ± 0.4	25.7 ± 1.4	–	–	Cn1c(-c2ccc3ccccc3c2)c(C(C(=O)NO)c2cccc(F)c2)c2ccccc21 (centres unmarked) [Compound 3bafc]	–
24 ± 0.2	11.2 ± 0.9	–	–	Cn1c(-c2ccc3ccccc3c2)c(C(C(=O)NO)c2ccccc2Br)c2ccccc21 (centres unmarked) [Compound 3bafd]	–
–	–	6.6 ± 0.5	7.7 ± 0.4	CCCCn1c(-c2ccc3ccccc3c2)c(C(C(=O)NO)c2ccc(C(C)C)cc2)c2ccccc21 (centres unmarked) [Compound 3cafe]	antiproliferative potency (GI50) [1]: single-digit micromolar
–	–	9.8 ± 0.8	9.3 ± 0.3	CCC(C)n1c(-c2ccc3ccccc3c2)c(C(C(=O)NO)c2ccccc2)c2ccccc21 (centres unmarked) [Compound 3dafa]	antiproliferative potency (GI50) [1]: single-digit micromolar
–	–	–	–	CC(=O)O[C@H]1C(=O)[C@@]2(C)[C@H]([C@H](OC(=O)c3ccccc3)[C@]3(O)C[C@H](OC(=O)[C@H](O)[C@@H](NC(=O)c4ccccc4)c4ccccc4)C(C)=C1C3(C)C)[C@]1(OC(C)=O)CO[C@@H]1C[C@@H]2O [Taxol, reference compound]	GI50 [4]: 0.007 ± 0.001 µM; cells whose proliferation is not affected, A549 [5]: ca. 50%; cells whose proliferation is not affected, U87 [6]: ca. 50%
–	–	–	–	CC[C@]1(O)C[C@@H]2CN(CCc3c([nH]c4ccccc34)[C@@](C(=O)OC)(c3cc4c(cc3OC)N(C)[C@H]3[C@@](O)(C(=O)OC)[C@H](OC(C)=O)[C@]5(CC)C=CCN6CC[C@]43[C@@H]65)C2)C1 [Vinblastine, reference compound]	GI50 [4]: 0.006 ± 0.001 µM; GI50 ([7]; Homo sapiens, MES-SA/Dx5, 48 h treatment, MTT, ± SD, MDR line, read-out: GI50 in vitro, MES-SA/Dx5): 5 ± 1.4 µM; change in potency, MDR MES-SA/Dx5 versus parent MES-SA ([7]; MDR line compared with parent line): more than a thousand fold drop in potency
–	–	–	–	COc1cc([C@@H]2c3cc4c(cc3[C@H](O)[C@H]3COC(=O)[C@H]23)OCO4)cc(OC)c1OC [podophyllotoxin, reference compound]	cells whose proliferation is not affected, A549 [5]: ca. 50%; cells whose proliferation is not affected, U87 [6]: ca. 50%
